Laboratory results: BindingDB's records for patent US12138263 (Relay Therapeutics, 2024)

Biological target: T1, Tyrosine-protein phosphatase non-receptor type 11 (Homo sapiens, UniProt Q06124)
T1 sequence (Q06124 whole entry): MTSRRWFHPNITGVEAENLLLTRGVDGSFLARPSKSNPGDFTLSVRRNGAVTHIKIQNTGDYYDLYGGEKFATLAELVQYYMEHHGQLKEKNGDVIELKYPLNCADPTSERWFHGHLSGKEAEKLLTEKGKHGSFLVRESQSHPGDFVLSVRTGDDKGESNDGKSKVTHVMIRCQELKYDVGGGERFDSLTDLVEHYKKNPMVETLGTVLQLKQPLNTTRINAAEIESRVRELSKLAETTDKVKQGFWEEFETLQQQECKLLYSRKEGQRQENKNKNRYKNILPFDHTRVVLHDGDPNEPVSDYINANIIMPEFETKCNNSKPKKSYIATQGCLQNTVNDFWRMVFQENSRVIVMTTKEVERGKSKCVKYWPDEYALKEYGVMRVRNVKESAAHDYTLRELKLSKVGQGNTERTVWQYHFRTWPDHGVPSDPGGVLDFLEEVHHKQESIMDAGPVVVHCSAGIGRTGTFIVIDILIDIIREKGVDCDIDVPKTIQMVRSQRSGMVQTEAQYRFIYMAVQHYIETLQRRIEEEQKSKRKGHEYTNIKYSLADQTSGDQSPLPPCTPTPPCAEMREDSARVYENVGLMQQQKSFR
Experiment: SPH2 Allosteric Inhibition Assay and Binding

`CC1(CN)CCN(c2cnc3c(N4CCCc5c4cccc5S(=O)(=O)F)n[nH]c3n2)CC1` [US12138263, Compound 5A] was tested, and the IC50 was < 1 µM.
